From patent publication US9334242B2, “Compounds for treatment of cancer” (GTX, INC., priority 2010, dated 2016)
Read-outs that look alike come from different tables or passages of the source.

Columns and labels:
[1] = tested on: melanoma (B16-F1, A375, WM-164) and prostate cancer (LNCaP, PC-3, DU 145, PPC-1) cell lines; assay: Cytotoxicity SRB assay, ranges or averages quoted over the melanoma and prostate cancer cell lines; type: cell-based
Bovine brain tubulin = Bovine brain tubulin (Bos taurus, UniProt P81947+Q6B856); assay: In vitro tubulin polymerization assay; type: biochemical; details: 10 μM
Procedure: In Vitro Tubulin Polymerization Assay.
In vitro microtubule polymerization assay. […] The spectrophotometer was maintained at 37° C. for tubulin polymerization.

A375 melanoma xenografts = assay: A375 tumor xenograft study in athymic nude mice; type: in vivo, mouse; details: Melanoma (A375) xenograft; for T − C: tumor growth delay
Source text: PC-3 and A375 tumor xenograft studies.

WM-164 melanoma cells = assay: Microtubule imaging (immunofluorescence, Cellomics Cytoskeleton rearrangement kit); type: cell-based, human; details: WM-164 cells, 18 h
Source text: Primary antibody for tubulin and fluorescence-labeled secondary antibody were subsequently added to the cells. Cell nuclei were stained by DAPI. Whole Cell Stain Green was also applied to all cells. All images were acquired with an Olympus IX71 inverted fluorescence microscope (Olympus Corp., Tokyo, Japan) with overlays from separate images of tubulin (red), nuclei (blue), and whole cells (green).

PPC-1 = assay: Cytotoxicity / cell growth inhibition, SRB assay; details: Homo sapiens, PPC-1, 96 h, read-out: IC50 ± SEM (nM) PPC-1, Table 12; 96 h exposure
[2] = quoted in the text to Table 2, read-out: IC50 (range or bound over the tested cancer cell lines)
[3] = after 20 min incubation, compared to vehicle (Example 11D)

## O=C(c1ccc(F)cc1)c1c[nH]c(-c2ccc(OCc3ccccc3)cc2)n1 [12jb, (2-(4-(benzyloxy)phenyl)-1H-imidazol-4-yl)(4-fluorophenyl)methanone]
[1]
  increase in activity compared with 12 kb (fold): 440 fold

## COc1cc(/C(=N\O)c2csc(-c3ccccc3)n2)cc(OC)c1OC [2e-trans, (E)-(2-Phenylthiazol-4-yl)(3,4,5-trimethoxyphenyl)methanone oxime]
[1]; [2]
  IC50: > 10 µM

## COc1cc(C(=O)c2csc(-c3ccc4[nH]ccc4c3)n2)cc(OC)c1OC [66a]
[1]; range given, read-out: IC50 (range over the tested cancer cell lines)
  IC50: 0.007 to 0.025 µM
Bovine brain tubulin; [3]
  inhibition of tubulin polymerization: 81%

## COc1cc(C(=O)c2csc(-c3ccc(F)cc3)n2)cc(OC)c1OC [SMART-F]
A375 melanoma xenografts; 15 mg/kg i.p., doubling time 4.6 d
  Total log cell kill: 0.7
A375 melanoma xenografts; 15 mg/kg i.p.
  T − C: 11 days

## COc1cc(C(=O)c2csc(-c3ccccc3)n2)cc(OC)c1OC [SMART-H]
A375 melanoma xenografts; 20 mg/kg i.p.
  T − C: 10 days

## COc1cc(C(=O)c2csc(Nc3ccccc3)n2)cc(OC)c1OC [5a, (2-(Phenylamino)thiazol-4-yl)(3,4,5-trimethoxyphenyl)methanone]
Bovine brain tubulin; [3]
  inhibition of tubulin polymerization: 78%

## COc1cc(/C(=N/O)c2csc(-c3ccccc3)n2)cc(OC)c1OC [2e-cis, (Z)-(2-Phenylthiazol-4-yl)(3,4,5-trimethoxyphenyl)methanone oxime]
[1]; [2]
  IC50: 0.1 to 0.3 µM

## COc1cc(C(=O)c2coc(-c3ccccc3)n2)cc(OC)c1OC [36a, (2-Phenyl-oxazol-4-yl)-(3,4,5-trimethoxy-phenyl)-methanone]
[1]; range given
  IC50 (range over the tested cancer cell lines): hundreds of nanomolar range

## COc1cc(C(=NC#N)c2csc(-c3ccccc3)n2)cc(OC)c1OC [2j, N-((2-phenylthiazol-4-yl)(3,4,5-trimethoxyphenyl)methylene)cyanamide]
Bovine brain tubulin; [3]
  inhibition of tubulin polymerization: 64%

## COc1cc(C(=O)[C@H]2COC(c3ccccc3)=N2)cc(OC)c1OC [35a, (2R)-(2-Phenyl-4,5-dihydro-oxazol-4-yl)-(3,4,5-trimethoxy-phenyl)-methanone]
[1]; range given
  IC50 (range over the tested cancer cell lines): hundreds of nanomolar range

## COc1cc(C(=O)c2csc(-c3ccc(CN(C)C)cc3)n2)cc(OC)c1OC.Cl [2u, (2-(4-((Dimethylamino)methyl)phenyl)thiazol-4-yl)(3,4,5-trimethoxyphenyl)methanone hydrochloride]
[1]; range given
  IC50 (range over the tested cancer cell lines): abrogated activity

## Cc1ccc(-c2nc(C(=O)c3ccc(F)cc3)c[nH]2)cc1 [12 db, (4-fluorophenyl)(2-(p-tolyl)-1H-imidazol-4-yl)methanone]
Bovine brain tubulin; 15 min (Example 16)
  inhibition of tubulin polymerization: ~80%

## COc1ccc(S(=O)(=O)Nc2cccnc2Nc2ccc(O)cc2)cc1 [ABT-751, reference compound]
WM-164 melanoma cells
  effect on microtubule arrangement: microtubule fragmentation

## CNCc1ccc(-c2nc(C(=O)c3cc(OC)c(OC)c(OC)c3)cs2)cc1.Cl [2s, (2-(4-((Methylamino)methyl)phenyl)thiazol-4-yl)(3,4,5-trimethoxyphenyl)methanone hydrochloride]
[1]; range given
  IC50 (range over the tested cancer cell lines): abrogated activity

## CN(C)c1ccc(-c2nc(C(=O)c3ccc(F)cc3)c[nH]2)cc1 [12gb, (2-(4-(dimethylamino)phenyl)-1H-imidazol-4-yl)(4-fluorophenyl)methanone]
PPC-1
  IC50: 4 nM

## COc1cc(C(=O)c2cccc(-c3ccccc3)c2)cc(OC)c1OC [1a, Biphenyl-3-yl(3,4,5-trimethoxyphenyl)methanone]
[1]; range given
  IC50 (range over the tested cancer cell lines): hundreds of nanomolar range
